Laboratory results taken from the NIST ThermoML archive (doi:10.1021/je0504109).

Test: xn = mol fraction of the nth substance listed
Conditions: 298.15 K, 101 kPa, Liquid

CCCCN [1-butanamine] + C1COCO1
Conditions	mass density [kg/m3]	viscosity [mPa·s]
x2 = 0	731.9	0.493
x2 = 0.1001	755.1	0.477
x2 = 0.2001	779.6	0.463
x2 = 0.3002	805.8	0.458
x2 = 0.4002	833.8	0.455
x2 = 0.5002	864.1	0.456
x2 = 0.6002	896.8	0.464
x2 = 0.7002	932.1	0.478
x2 = 0.8001	970.3	0.496
x2 = 0.9001	1011.8	0.513

CCCC(=O)O [butanoic acid] + C1COCCO1
Conditions	mass density [kg/m3]	viscosity [mPa·s]
x2 = 0	952.8	1.396
x2 = 0.1	961.7	1.504
x2 = 0.2	970.3	1.57
x2 = 0.3	978.4	1.587
x2 = 0.4	986.1	1.572
x2 = 0.5	993.4	1.507
x2 = 0.6	1000.2	1.443
x2 = 0.7	1006.8	1.362
x2 = 0.8	1013.1	1.293
x2 = 0.9	1019.4	1.241

CCCC(=O)O [butanoic acid] + C1COCO1
Conditions	mass density [kg/m3]	viscosity [mPa·s]
x2 = 0	952.8	1.396
x2 = 0.1167	963.1	1.297
x2 = 0.2292	973.7	1.202
x2 = 0.3376	984.3	1.111
x2 = 0.4422	995.3	1.023
x2 = 0.5432	1006.1	0.938
x2 = 0.6408	1016.9	0.854
x2 = 0.7351	1027.2	0.77
x2 = 0.8263	1037.4	0.688
x2 = 0.9146	1047.3	0.608

CCC(C)=O [butanone] + C1COCCO1
Conditions	mass density [kg/m3]	viscosity [mPa·s]
x2 = 0	798.1	0.373
x2 = 0.0833	817	0.391
x2 = 0.1698	836.5	0.411
x2 = 0.2597	856.8	0.436
x2 = 0.353	877.9	0.464
x2 = 0.4501	900.1	0.512
x2 = 0.5511	923.3	0.576
x2 = 0.6563	947.2	0.65
x2 = 0.766	972.2	0.751
x2 = 0.8805	998.5	0.901
